Measured values as given in US11071788B2, “Antibody drug conjugates of kinesin spindel protein (KSP) inhibitors with antiB7H3-antibodies” (BAYER PHARMA AKTIENGESELLSCHAFT, priority 2015, dated 2021).

Assays:
[1] = Cell permeability flux assay using Caco-2 cells; type: in vitro ADME; details: human; Caco-2, 2 hours incubation
NCI-H292 = experiment: Cytotoxicity MTT assay, NCI-H292; type: cell-based, human
Description: (§1) Table 2 below lists the IC50 values of representative working examples from the assay described and the corresponding cytotoxicity data (MTT assay).

Caco-2 cells = experiment: Cell permeability flux assay using Caco-2 cells; type: in vitro ADME; details: for Papp (B-A): Caco-2, 2 hours incubation; for Efflux ratio: ratio of Papp (B-A) to Papp (A-B), Caco-2
KPL4 = experiment: Cytotoxicity MTT assay, KPL4; type: cell-based
Description: as §1

[2] = biological target: motor domain of the human kinesin spindle protein KSP/Eg5 (Homo sapiens (Human), UniProt P52732); experiment: Inhibition of the kinesin spindle protein KSP/Eg5 (ATPase, malachite green); type: biochemical; details: 10 nM KSP motor domain, microtubuli, 500 μM ATP, 2 h RT
Protocol: The motor domain of the human kinesin spindle protein KSP/Eg5 (tebu-bio/Cytoskeleton Inc, No. 027EG01-XL) was incubated in a concentration of 10 nM with microtubuli (bovine or porcine, tebu-bio/Cytoskeleton Inc) stabilized with 50 μg/ml taxol (Sigma No. T7191-5MG) for 5 min at RT in 15 mM PIPES, pH 6.8 (5 mM MgCl2 and 10 mM DTT, Sigma). […] Incubation was at RT for 2 h. ATPase activity was detected by detecting the inorganic phosphate formed using malachite green (Biomol). […] The positive controls used were monastrol (Sigma, M8515-1 mg) and ispinesib (AdooQ Bioscience A10486). The individual data of the dose-activity curve are eight-fold determinations. The IC50 values are means of two independent experiments.

[3] = system: MCF-7: human breast cancer cells, B7H3-positive; experiment: CTG cytotoxicity assay of anti-B7H3 ADCs, MCF-7; type: cell-based; details: MCF7, 72 h incubation, growth inhibition vs day 0
Protocol: The cells were cultivated according to the standard method using the growth media listed under C-1. […] The cells were then incubated in an incubator at 37° C., and 5% carbon dioxide. In a parallel plate, the cell vitality was determined at the start of the drug treatment (day 0) using the Cell Titer Glow (CTG) Luminescent Cell Viability Assay (Promega #G7573 and #G7571). To this end, 100 μl of the substance were added per cell batch, the plates were then covered with aluminium foil, shaken on the plate shaker at 180 rpm for 2 minutes, allowed to stand on the laboratory bench for 8 minutes and then measured using a luminometer (Victor X2, Perkin Elmer). The substrate detects the ATP content in the living cells, generating a luminescence signal of which the height is directly proportional to the vitality of the cells. […] From the measured data, the IC^50 of the growth inhibition in comparison to day 0 was calculated using the DRC (dose response curve) analysis spreadsheet with a 4-parameter fit.

[4] = system: Raji: human Burkitt's lymphoma cells, B7H3-negative; experiment: CTG cytotoxicity assay of anti-B7H3 ADCs, Raji; type: cell-based; details: 72 h incubation
Protocol: The analysis of the cytotoxic effects of the anti-B7H3 ADCs was carried out with various cell lines:
Raji: human Burkitt's lymphoma cells, DMSZ-ACC-319, standard medium: RPMI 1640; (Biochrom; # FG 1215, with stable glutamine)+10% FCS (Biochrom; # S0415), B7H3-negative.
The cells were cultivated by the standard method as stated by the American Tissue Culture Collection (ATCC) for the cell lines in question.
The cells were cultivated according to the standard method using the growth media listed under C-1. […] In a parallel plate, the cell vitality was determined at the start of the drug treatment (day 0) using the Cell Titer Glow (CTG) Luminescent Cell Viability Assay (Promega #G7573 and #G7571). To this end, 100 μl of the […] were added per cell batch, the plates were then covered with aluminium foil, shaken on the plate shaker at 180 rpm for 2 minutes, allowed to stand on the laboratory bench for 8 minutes and then measured using a luminometer (Victor X2, Perkin Elmer). The substrate detects the ATP content in the living cells, generating a luminescence signal of which the height is directly proportional to the vitality of the cells. […] From the measured data, the IC^50 of the growth inhibition in comparison to day 0 was calculated using the DRC (dose response curve) analysis spreadsheet with a 4-parameter fit. […]

[5] = Homo sapiens, NCI-H292, MTT assay

Chain of motor domain of the human kinesin spindle protein KSP/Eg5 (P52732 18-359): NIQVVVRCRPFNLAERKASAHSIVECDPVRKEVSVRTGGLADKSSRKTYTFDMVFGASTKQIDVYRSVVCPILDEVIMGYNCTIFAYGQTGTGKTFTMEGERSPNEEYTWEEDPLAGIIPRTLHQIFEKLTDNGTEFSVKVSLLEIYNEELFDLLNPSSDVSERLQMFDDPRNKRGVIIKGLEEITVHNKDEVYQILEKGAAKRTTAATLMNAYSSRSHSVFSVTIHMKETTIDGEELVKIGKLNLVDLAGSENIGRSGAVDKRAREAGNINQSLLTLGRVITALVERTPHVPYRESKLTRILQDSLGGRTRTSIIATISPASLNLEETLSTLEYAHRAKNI

Structure (SMILES) | IC50 (NCI-H292; [5]) | Papp (B-A) (Caco-2 cells) | IC50 (NCI-H292; MTT assay) | IC50 (KPL4; MTT assay) | IC50 [2] | other results
CC(C)(C)[C@H](c1cc(-c2cc(F)ccc2F)cn1Cc1ccccc1)N(CC[C@H](N)C(=O)NCCNC(=O)CNC(=O)C[C@@H](SC[C@H](N)C(=O)O)C(=O)O)C(=O)CO (racemic) [Example M26, 4-[(2-{[2-({(2S)-2-Amino-4-[{(1R)-1-[1-benzyl-4-(2,5-difluorophenyl)-1H-pyrrol-2-yl]-2,2-dimethylpropyl}(glycoloyl)amino]butanoyl}amino)ethyl]amino}-2-oxoethyl)amino]-2-{[(2R)-2-amino-2-carboxyethyl]sulfanyl}-4-oxobutanoic acid-trifluoroacetic acid (1:1)] | 63.8 nM |  |  |  |  | Papp B→A at 2 h [1]: 1.3 ×10⁻⁶ cm/s
CC(C)(C)[C@H](c1cc(-c2cc(F)ccc2F)cn1Cc1ccccc1)N(CC[C@H](N)C(=O)NCCNC(=O)CNC(=O)CC(SC[C@H](N)C(=O)O)C(=O)O)C(=O)CO (stereo partly shown) [Example M2] |  | 0.48 ×10⁻⁶ cm/s | 204 nM | 163 nM |  | 
CC(C)(C)[C@H](c1cc(-c2cc(F)ccc2F)cn1Cc1ccccc1)N(CC[C@H](N)C(=O)NC(CCC(=O)O)C(=O)O)C(=O)CO.O=C(O)C(F)(F)F (stereo in doubt) [Example M25, N-{(2S)-2-Amino-4-[{(1R)-1-[1-benzyl-4-(2,5-difluorophenyl)-1H-pyrrol-2-yl]-2,2-dimethylpropyl}(glycoloyl)amino]butanoyl}-L-glutamic acid-trifluoroacetic acid (1:1)] | 500 nM |  |  |  |  | Papp B→A at 2 h [1]: 0.81 ×10⁻⁶ cm/s; IC50 (KPL4; KPL4, MTT assay): 500 nM
CC(C)(C)[C@H](c1cc(-c2cc(F)ccc2F)cn1Cc1ccccc1)N(CC[C@H](N)C(=O)N[C@H](CNC(=O)CNC(=O)CC(SC[C@H](N)C(=O)O)C(=O)O)C(=O)O)C(=O)CO (stereo partly shown) [Example M3] |  | 0.14 ×10⁻⁶ cm/s | 32.1 nM | 90 nM | 1.52 nM | Efflux ratio (Caco-2 cells): 1.3
CC(C)(C)[C@H](c1cc(-c2cc(F)ccc2F)cn1Cc1ccccc1)N(CCCN)C(=O)CSC[C@H](NC(=O)CCOCCOCCOCCOCCNC(=O)CCNC(=O)CC(SC[C@H](N)C(=O)O)C(=O)O)C(=O)O (stereo partly shown) [Example M10] |  |  | 303 nM | 226 nM | 0.47 nM | 
CC(C)(C)[C@H](c1cc(-c2cc(F)ccc2F)cn1Cc1ccccc1)N(CC[C@H](N)C(=O)NCCOCCNC(=O)CC(SC[C@H](N)C(=O)O)C(=O)O)C(=O)CO (stereo partly shown) [Example M5] |  | 2.03 ×10⁻⁶ cm/s | 79.4 nM | 222 nM | 0.457 nM | Efflux ratio (Caco-2 cells): 26.5
CC(C)(C)[C@H](c1cc(-c2cc(F)ccc2F)cn1Cc1ccccc1)N(CCCN)C(=O)CO [M09, N-(3-Aminopropyl)-N-{(1R)-1-[1-benzyl-4-(2,5-difluorophenyl)-1H-pyrrol-2-yl]-2,2-dimethylpropyl}-2-hydroxyacetamide] |  |  |  |  |  | IC50 [3]: 0.03 nM; IC50 [4]: 0.03 nM
CC(C)(C)[C@H](c1cc(-c2cc(F)ccc2F)cn1Cc1ccccc1)N(CCCN)C(=O)CSC[C@H](NC(=O)CCOCCOCCOCCOCCNC(=O)CNC(=O)CC(SC[C@@H](N)C(=O)O)C(=O)O)C(=O)O (stereo partly shown) [Example M22] |  | 0.09 ×10⁻⁶ cm/s | 28.9 nM | 182 nM |  | 
CC(C)(C)[C@H](c1cc(-c2cc(F)ccc2F)cn1Cc1ccccc1)N(CC[C@H](N)C(=O)NCCNC(=O)CNC(=O)C(CC(=O)O)SC[C@H](N)C(=O)O)C(=O)CO (single isomer, unassigned) [Example M15] | 133 nM |  |  |  |  | IC50 (KPL4; KPL4, MTT assay): 169 nM
